Measurements: ChEMBL document CHEMBL3421602, “Small molecule discoidin domain receptor kinase inhibitors and potential medical applications” (J Med Chem, 2015)
Numbered stars: 1 amine (or outer) side, 2 acyl side, 3 side chain; on linkers, the order of the positions; unused ones are H or OH. Bridge positions count the residues as written; N and C are the ends. Square brackets hold non-standard residues; d marks the D form. Peptide text beside a SMILES is read from it. I, II: the chains in the order shown. Actinocin(9to1) = Cc1c2oc3c(C)ccc(C(=O)[*:1])c3nc-2c(C(=O)[*:2])c(N)c1=O; NMeV = CN[C@H](C(=O)O)C(C)C; Sar = CNCC(=O)O

What was measured:
[1] = biological target: T1, Discoidin domain-containing receptor 2 (Homo sapiens, UniProt Q16832); assay: Inhibition of human DDR2 expressed in HEK293 cells assessed as reduction in collagen-1-induced DDR2 tyrosine phosphorylation pre-incubated for 30 mins by immunoblotting method; assay type: cell-based
T1 sequence (Q16832 whole entry): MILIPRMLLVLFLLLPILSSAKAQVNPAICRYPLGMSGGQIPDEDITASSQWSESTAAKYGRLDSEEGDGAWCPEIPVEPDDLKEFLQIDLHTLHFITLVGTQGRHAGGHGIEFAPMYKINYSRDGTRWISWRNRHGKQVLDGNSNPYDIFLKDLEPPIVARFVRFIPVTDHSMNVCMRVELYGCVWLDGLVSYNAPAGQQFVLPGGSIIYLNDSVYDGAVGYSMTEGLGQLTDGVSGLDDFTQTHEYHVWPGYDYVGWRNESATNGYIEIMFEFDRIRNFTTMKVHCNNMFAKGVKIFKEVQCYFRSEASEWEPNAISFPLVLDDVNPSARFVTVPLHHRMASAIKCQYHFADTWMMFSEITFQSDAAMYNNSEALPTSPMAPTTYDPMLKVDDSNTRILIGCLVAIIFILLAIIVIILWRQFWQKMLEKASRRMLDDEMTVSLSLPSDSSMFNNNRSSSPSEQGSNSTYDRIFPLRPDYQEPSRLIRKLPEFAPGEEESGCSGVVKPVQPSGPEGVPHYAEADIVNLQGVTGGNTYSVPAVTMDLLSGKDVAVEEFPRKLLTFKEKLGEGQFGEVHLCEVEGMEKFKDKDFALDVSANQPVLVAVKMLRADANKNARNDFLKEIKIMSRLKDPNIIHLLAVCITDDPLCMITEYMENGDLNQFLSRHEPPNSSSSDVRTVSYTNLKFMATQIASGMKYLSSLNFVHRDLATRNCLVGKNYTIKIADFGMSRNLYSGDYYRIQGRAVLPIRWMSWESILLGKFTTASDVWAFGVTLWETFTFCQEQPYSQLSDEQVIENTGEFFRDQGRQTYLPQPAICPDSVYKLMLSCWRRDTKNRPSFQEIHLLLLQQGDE

[2] = biological target: T1, Discoidin domain-containing receptor 2; assay: Inhibition of human DDR2 expressed in HEK293 cells assessed as reduction in collagen-2-induced DDR2 phosphorylation; assay type: cell-based
[3] = biological target: T2, Epithelial discoidin domain-containing receptor 1 (Homo sapiens, UniProt Q08345); assay: Inhibition of human DDR1 in doxycycline-stimulated human U2OS cells assessed as inhibition of collagen-1-induced autophosphorylation incubated for 1 hr; assay type: cell-based
[4] = biological target: T2, Epithelial discoidin domain-containing receptor 1; assay: Inhibition of human DDR1 kinase domain (601 to 913 residues) expressed in Sf9 cells by enzymatic kinase assay
[5] = biological target: T1, Discoidin domain-containing receptor 2; assay: Binding affinity to DDR2 (unknown origin) by active-site dependent competition binding assay
[6] = tested on: U2OS; assay: Inhibition of cell proliferation of human U2OS cells over-expressing DDR1
[7] = biological target: T1, Discoidin domain-containing receptor 2; assay: Inhibition of recombinant non-activated DDR2 tyrosine kinase domain (unknown origin) using histone H2B peptide substrate and [32P]ATP incubated for 15 mins
[8] = biological target: T1, Discoidin domain-containing receptor 2; assay: Inhibition of recombinant activated DDR2 tyrosine kinase domain (unknown origin) using histone H2B peptide substrate and [32P]ATP incubated for 15 mins

T2 sequence (Q08345 whole entry, the tested form may be a part): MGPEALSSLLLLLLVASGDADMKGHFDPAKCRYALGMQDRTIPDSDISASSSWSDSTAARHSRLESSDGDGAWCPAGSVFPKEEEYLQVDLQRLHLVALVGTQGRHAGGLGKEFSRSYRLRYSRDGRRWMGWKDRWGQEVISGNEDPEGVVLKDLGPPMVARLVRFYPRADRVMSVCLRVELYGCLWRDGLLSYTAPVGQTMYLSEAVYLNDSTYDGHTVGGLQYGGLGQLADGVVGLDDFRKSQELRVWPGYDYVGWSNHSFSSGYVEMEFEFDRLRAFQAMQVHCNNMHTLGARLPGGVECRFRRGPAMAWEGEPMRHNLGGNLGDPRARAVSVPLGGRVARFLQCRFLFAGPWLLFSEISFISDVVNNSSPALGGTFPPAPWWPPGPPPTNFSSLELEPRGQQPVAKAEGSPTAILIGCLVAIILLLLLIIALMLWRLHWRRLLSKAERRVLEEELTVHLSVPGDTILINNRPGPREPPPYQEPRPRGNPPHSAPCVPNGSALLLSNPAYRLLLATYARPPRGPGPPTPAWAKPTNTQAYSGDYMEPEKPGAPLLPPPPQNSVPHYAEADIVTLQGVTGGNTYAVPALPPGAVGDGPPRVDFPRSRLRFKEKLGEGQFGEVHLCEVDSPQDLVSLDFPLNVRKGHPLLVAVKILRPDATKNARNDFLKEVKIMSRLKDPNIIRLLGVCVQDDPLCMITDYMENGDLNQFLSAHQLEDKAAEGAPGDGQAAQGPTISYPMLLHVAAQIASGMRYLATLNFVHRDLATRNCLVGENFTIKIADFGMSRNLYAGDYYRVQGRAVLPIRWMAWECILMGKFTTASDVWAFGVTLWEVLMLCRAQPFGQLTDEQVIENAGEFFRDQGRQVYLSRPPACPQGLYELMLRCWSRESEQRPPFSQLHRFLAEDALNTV

`Cc1c2oc3c(C)ccc(C(=O)N[C@@H]4C(=O)N[C@H](C(C)C)C(=O)N5CCC[C@H]5C(=O)N(C)CC(=O)N(C)[C@@H](C(C)C)C(=O)O[C@@H]4C)c3nc-2c(C(=O)N[C@@H]2C(=O)N[C@H](C(C)C)C(=O)N3CCC[C@H]3C(=O)N(C)CC(=O)N(C)[C@@H](C(C)C)C(=O)O[C@@H]2C)c(N)c1=O` [DACTINOMYCIN] (I: T[dV]P[Sar][NMeV] / II: T[dV]P[Sar][NMeV]; ester I:1-I:C, II:1-II:C; linker I:N-II:N via Actinocin(9to1)) was tested, and the IC50 [1] was 9000 nM.
Work on `CNC(=O)c1cc(Oc2ccc(CNC(=O)Nc3cc(Cl)ccc3OC)cc2C)ccn1` yielded an IC50 [2] of 30 nM.
`CCN1CCN(Cc2ccc(C(=O)Nc3ccc(C)c(NCc4cnc5[nH]ccc5c4OC)c3)cc2C(F)(F)F)CC1` gave an IC50 [3] of 9 nM and an IC50 [4] of 47 nM.
Compound `CCc1ccc(C(=O)Nc2cc(CN3CCN(C)CC3)cc(C(F)(F)F)c2)cc1C#Cc1cnc2ccnn2c1` has a Kd [5] of 0.6 nM.
`CCS(=O)(=O)c1ccc(Cl)cc1CNC(=O)c1ccc(CN2CCN(C)CC2)c(C(F)(F)F)c1` showed an IC50 [6] of 440 nM.
For `Cn1cc(C(F)(F)F)cc(NC(=O)NCc2ccc(Oc3ccnc4c3CNC(=O)N4)cc2)c1=O`, the IC50 [2] was 15 nM.
`Oc1cccc(Nc2ccnc3cc(-c4cccc(CN5CCOCC5)c4)sc23)c1` showed an IC50 [7] of 145 nM and an IC50 [8] of 6 nM.
